Assay results from patent US5386019A, “Synthesis of inhibitors of calmodulin-mediated enzymes including KS-501, KS-502 and their enantiomers” (Yale University, priority 1992, dated 1995).

What was measured:
[1] = tested on: Ca2+/CaM-sensitive phosphodiesterase; assay: Inhibition of Ca2+/CaM-sensitive phosphodiesterase (FIGS. 1-4); format: biochemical; details: for Inhibitory effects on CaM-mediated enzyme activity: enantiomers compared with KS-501 and KS-502
Source text: FIG. 1 is a graph showing the effect of various concentrations of KS-501 on the activity of Ca^2+ /CaM-dependent phosphodiesterase.
FIG. 2 is a graph showing the effect of various concentrations of ent-KS-501 on the activity of Ca^2+ /CaM-dependent phosphodiesterase.
FIG. 3 is a graph showing the effect of various concentrations of KS-502 on the activity of Ca^2+ /CaM-dependent phosphodiesterase.
FIG. 4 is a graph showing the effect of various concentrations of ent-KS-502 on the activity of Ca^2+ /CaM-dependent phosphodiesterase.

[2] = tested on: Ca++/CaM dependent Kinase II; assay: Synapsin I phosphorylation at sites 2,3 by Ca++/Calmodulin kinase (Table I A); format: biochemical; details: for Inhibitory activity against CaM-dependent kinases compared with cAMP-dependent kinase or protein kinase C: from data in Table I
[3] = tested on: CaM KI; assay: Synapsin I phosphorylation at site 1 by Ca++/Calmodulin kinase (Table I A); format: biochemical
[4] = tested on: PKC; assay: Synapsin I phosphorylation by PKC, Ca++/PSD (Table I B); format: biochemical
Source text: (§1) KS-501 & ent-KS-501 as Inhibitors of Ca++/Calmodulin PKC PKA
(§2) The results represent the mean of 3 experiments
Therefore in the reaction of CaMK or PKC, PKA inhibitor is included in th
In vitro PKC is able to phosphorylate Synapsin I at all 3 serine sites.

[5] = tested on: cAMP dependent kinase; assay: Synapsin I phosphorylation by PKA, cAMP (Table I C); format: biochemical
Source text: as §1, §2
Site 1 is phosphorylated by both CaM KI and cAMP dependent kinase.
reaction mix. And in the reaction of PKA, EGTA is included.

[6] = tested on: CaM-PDE; details: background, cited from earlier work; for Concentration range inhibiting CaM-dependent activities of CaM-PDE: Nakanishi et al.
[7] = tested on: protein kinase C; details: background; cited from earlier work
[8] = Basal, compound 10 μM, basal control 0.016, mean of 3 experiments
[9] = Basal, compound 40 μM, basal control 0.016
[10] = Ca++/CaM, compound 10 μM, Ca++ CaM 3 μg control 0.125
[11] = Ca++/CaM, compound 40 μM, Ca++ CaM 3 μg control 0.125
[12] = Basal, compound 10 μM, basal control 0.022
[13] = Basal, compound 40 μM, basal control 0.022
[14] = Ca++/CaM, compound 10 μM, Ca++ CaM 3 μg control 0.049
[15] = Ca++/CaM, compound 40 μM, Ca++ CaM 3 μg control 0.049
[16] = Basal, compound 10 μM, basal control 0.016
[17] = Basal, compound 10 μM, basal control 0.018
[18] = Basal, compound 40 μM, basal control 0.018
[19] = Ca++/PSD, compound 10 μM, Ca++ PSD control 0.045
[20] = Ca++/PSD, compound 10 μM, Ca++ PSD control 0.079
[21] = Ca++/PSD, compound 40 μM, Ca++ PSD control 0.045
[22] = Ca++/PSD, compound 40 μM, Ca++ PSD control 0.079
[23] = Basal, compound 10 μM, basal control 0.007
[24] = Basal, compound 10 μM, basal control 0.028
[25] = Basal, compound 40 μM, basal control 0.007
[26] = Basal, compound 40 μM, basal control 0.028
[27] = cAMP, compound 10 μM, cAMP 1 μM control 0.008
[28] = cAMP, compound 10 μM, cAMP 1 μM control 0.041
[29] = cAMP, compound 40 μM, cAMP 1 μM control 0.008
[30] = cAMP, compound 40 μM, cAMP 1 μM control 0.041

SMILES | Concentration range inhibitory of Ca2+/CaM-sensitive phosphodiesterase [1] | Inhibitory effects on CaM-mediated enzyme activity [1] | Concentration range inhibitory of CaM-sensitive Kinase II [2] [µM] | Phosphorylation of Synapsin I site 2,3 [2, 8] [pmole/mg protein/min] | Phosphorylation of Synapsin I site 2,3 [2, 9] [pmole/mg protein/min] | Phosphorylation of Synapsin I site 2,3 [2, 10] [pmole/mg protein/min] | Phosphorylation of Synapsin I site 2,3 [2, 11] [pmole/mg protein/min] | Inhibitory activity against CaM-dependent kinases compared with cAMP-dependent kinase or protein kinase C [2] | Phosphorylation of Synapsin I site 1 [3, 12] [pmole/mg protein/min] | Phosphorylation of Synapsin I site 1 [3, 13] [pmole/mg protein/min] | Phosphorylation of Synapsin I site 1 [3, 14] [pmole/mg protein/min] | Phosphorylation of Synapsin I site 1 [3, 15] [pmole/mg protein/min] | Phosphorylation of Synapsin I site 2,3 [4, 16] [pmole/mg protein/min] | Phosphorylation of Synapsin I site 1 [4, 17] [pmole/mg protein/min] | Phosphorylation of Synapsin I site 2,3 [4, 9] [pmole/mg protein/min] | Phosphorylation of Synapsin I site 1 [4, 18] [pmole/mg protein/min] | Phosphorylation of Synapsin I site 1 [4, 19] [pmole/mg protein/min] | Phosphorylation of Synapsin I site 2,3 [4, 20] [pmole/mg protein/min] | Phosphorylation of Synapsin I site 1 [4, 21] [pmole/mg protein/min] | Phosphorylation of Synapsin I site 2,3 [4, 22] [pmole/mg protein/min] | also measured
CCCCCCCc1cc(OC(=O)c2c(CCCCCCC)cc(O)cc2O[C@H]2O[C@H]([C@@H](O)CO)[C@@H](O)[C@@H]2O)cc(O)c1C(=O)O [ent-KS-502] | approximately 10 μM | possess inhibitory activity | – | – | – | – | – | – | – | – | – | – | – | – | – | – | – | – | – | – | –
CCCCCCCc1cc(O)cc(OC(=O)c2c(CCCCCCC)cc(O)cc2O[C@@H]2O[C@@H]([C@H](O)CO)[C@H](O)[C@H]2O)c1 [KS-501] | 1 to 2 µM | – | 10 to 40 | 0.017 | 0.015 | 0.087 | 0.012 | more inhibitory activity against CaM-dependent kinases than against cAMP-dependent kinase or protein kinase C | 0.025 | 0.017 | 0.054 | 0.011 | 0.015 | 0.020 | 0.015 | 0.016 | 0.041 | 0.061 | 0.017 | 0.030 | Phosphorylation of Synapsin I site 2,3 [5, 23]: 0.008 pmole/mg protein/min; Phosphorylation of Synapsin I site 1 [5, 24]: 0.033 pmole/mg protein/min; Phosphorylation of Synapsin I site 2,3 [5, 25]: 0.007 pmole/mg protein/min; Phosphorylation of Synapsin I site 1 [5, 26]: 0.015 pmole/mg protein/min; Phosphorylation of Synapsin I site 2,3 [5, 27]: 0.008 pmole/mg protein/min; Phosphorylation of Synapsin I site 1 [5, 28]: 0.049 pmole/mg protein/min; Phosphorylation of Synapsin I site 2,3 [5, 29]: 0.009 pmole/mg protein/min; Phosphorylation of Synapsin I site 1 [5, 30]: 0.025 pmole/mg protein/min; Concentration range inhibiting CaM-dependent activities of CaM-PDE [6]: 1 to 5 µM; Concentrations required to inhibit CaM-independent activities [6]: Much higher concentrations; Effect on protein kinase C [7]: no effect
CCCCCCCc1cc(OC(=O)c2c(CCCCCCC)cc(O)cc2O[C@@H]2O[C@@H]([C@H](O)CO)[C@H](O)[C@H]2O)cc(O)c1C(=O)O [KS-502] | approximately 10 μM | – | – | – | – | – | – | – | – | – | – | – | – | – | – | – | – | – | – | – | Concentration range inhibiting CaM-dependent activities of CaM-PDE [6]: 1 to 5 µM; Concentrations required to inhibit CaM-independent activities [6]: Much higher concentrations; Effect on protein kinase C [7]: no effect
CCCCCCCc1cc(O)cc(OC(=O)c2c(CCCCCCC)cc(O)cc2O[C@H]2O[C@H]([C@@H](O)CO)[C@@H](O)[C@@H]2O)c1 [ent-KS-501] | 1 to 2 µM | possess inhibitory activity | 10 to 40 | 0.018 | 0.018 | 0.076 | 0.021 | more inhibitory activity against CaM-dependent kinases than against cAMP-dependent kinase or protein kinase C | 0.023 | 0.019 | 0.043 | 0.012 | 0.015 | 0.018 | 0.014 | 0.013 | 0.047 | 0.067 | 0.01 | 0.02 | Phosphorylation of Synapsin I site 2,3 [5, 23]: 0.006 pmole/mg protein/min; Phosphorylation of Synapsin I site 1 [5, 24]: 0.025 pmole/mg protein/min; Phosphorylation of Synapsin I site 2,3 [5, 25]: 0.010 pmole/mg protein/min; Phosphorylation of Synapsin I site 1 [5, 26]: 0.017 pmole/mg protein/min; Phosphorylation of Synapsin I site 2,3 [5, 27]: 0.009 pmole/mg protein/min; Phosphorylation of Synapsin I site 1 [5, 28]: 0.049 pmole/mg protein/min; Phosphorylation of Synapsin I site 2,3 [5, 29]: 0.008 pmole/mg protein/min; Phosphorylation of Synapsin I site 1 [5, 30]: 0.03 pmole/mg protein/min
